Source: patent US8937078B2, “Quinazolinones as prolyl hydroxylase inhibitors” (Janssen Pharmaceutica NV, priority 2009, dated 2015)
Entries after “also recorded” stand apart in the source; their conditions may differ.

How the values were obtained:
[1] = target: T1, human PHD2 (PHD2181-417) (Homo sapiens, UniProt Q9GZT9); experiment: PHD enzymatic assay ([14C]-succinic acid production); type: biochemical; conditions: PHD2181-417, HIF-1α peptide 10 μM, average of results; read-out: Enzyme pIC50 (converted)
T1 construct: Smt (SUMO) tag (cleaved yes); made in house; host or cells: E. coli BL21 (pBAD vector)
T1 sequence (Q9GZT9 181-417): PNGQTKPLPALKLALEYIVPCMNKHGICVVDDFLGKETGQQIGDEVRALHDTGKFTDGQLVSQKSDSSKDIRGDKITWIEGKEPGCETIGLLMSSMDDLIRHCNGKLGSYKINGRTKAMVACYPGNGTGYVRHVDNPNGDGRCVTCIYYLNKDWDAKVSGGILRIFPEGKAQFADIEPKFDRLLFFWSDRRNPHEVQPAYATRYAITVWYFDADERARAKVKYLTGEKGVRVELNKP
Method in brief: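 Activity measured as [14C]-succinic acid formed from [5-14C]-2-oxoglutarate over 10 minutes, with peptide substrate at 10 μM, in Tris-HCl pH 7.5 buffer containing catalase, DTT and ascorbate. Unreacted oxoglutarate removed by DNP derivatisation; supernatant beta-counted.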

[2] = test system: Hep-3B cells; experiment: Cellular assay: erythropoietin secretion in Hep-3B cells; type: cell-based, human; conditions: Homo sapiens, Hep3B, 100 μM compound, 24 hours, percent of EPO secretion relative to assay control compound 7-[(4-Chloro-phenyl)-(5-methyl-isoxazol-3-ylamino)-methyl]-quinolin-8-ol, read-out: Cellular % EPO Stimulation
Method in brief: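 Hep-3B cells in DMEM with 10% FBS, treated 24 h after plating with compounds at 100 μM final for a further 24 h. Secreted EPO in supernatant measured by MSD electrochemiluminescence sandwich immunoassay with anti-EPO detection antibody.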

[3] = Canine study, histological analysis (single dose escalation then repeat dose); type: in vivo; parameters: key to Histology: Stomach / Histology: Testis/Epididymis / Histology: Bone Marrow / Histology: Lung / Histology: Heart / Histology: Test/Epididymis / Histology: Kidney: NSL: No Significant Lesion; conditions: oral by stomach tube
Procedure: Various animal models are assessed for histological analysis. In one example, a canine study was used to assess the effect of 1-[6-(2,6-dimethyl-phenoxy)-7-fluoro-4-oxo-3,4-dihydro-quinazolin-2-yl]-1H-pyrazole-4-carboxylic acid when administered orally by stomach tube in a Single Dose Escalation (SDE) phase, and then subsequently for up to 5 days during the Repeat Dose (RD) phase.

Cc1cccc(C)c1Oc1cc2c(=O)[nH]c(-n3cc(C(=O)O)cn3)nc2cc1F [Example 51, 1-[6-(2,6-Dimethyl-phenoxy)-7-fluoro-4-oxo-3,4-dihydro-quinazolin-2-yl]-1H-pyrazole-4-carboxylic acid]
IC50 [1]: 25.1 nM | Emax at 100 µM [2]: 100% | Histology: Bone Marrow ([3]; 10 mg/kg/day-1001 (Male)): NSL | Histology: Heart ([3]; 10 mg/kg/day-1001 (Male)): NSL | Histology: Kidney ([3]; 10 mg/kg/day-1001 (Male)): Slight, bilateral, acute multi-focal; also recorded: Slight, pelvic mineral deposition (right | Histology: Liver ([3]; 10 mg/kg/day-1001 (Male)): Slight, acute portal inflammation | Histology: Lung ([3]; 10 mg/kg/day-1001 (Male)): NSL | Histology: Spleen ([3]; 10 mg/kg/day-1001 (Male)): Mild EMH, with mild, increased; also recorded: Slight, intra-macrophage brown pigment | Histology: Stomach ([3]; 10 mg/kg/day-1001 (Male)): NSL | Histology: Testis/Epididymis ([3]; 10 mg/kg/day-1001 (Male)): NSL | Histology: Bone Marrow ([3]; 10 mg/kg/day-1501 (female)): NSL | Histology: Heart ([3]; 10 mg/kg/day-1501 (female)): NSL | Histology: Kidney ([3]; 10 mg/kg/day-1501 (female)): NSL | Histology: Liver ([3]; 10 mg/kg/day-1501 (female)): Slight, acute portal inflammation | Histology: Lung ([3]; 10 mg/kg/day-1501 (female)): NSL | Histology: Spleen ([3]; 10 mg/kg/day-1501 (female)): Mild EMH, with mild, increased; also recorded: Slight, intra-macrophage brown | Histology: Stomach ([3]; 10 mg/kg/day-1501 (female)): NSL | Histology: Bone Marrow ([3]; 45 mg/kg/day-2001 (Male)): BSL | Histology: Heart ([3]; 45 mg/kg/day-2001 (Male)): NSL | Histology: Kidney ([3]; 45 mg/kg/day-2001 (Male)): Slight, bilateral, acute multi-focal; also recorded: Multiple cysts with slight interstitial; also recorded: Slight, renal papillary mineralization | Histology: Liver ([3]; 45 mg/kg/day-2001 (Male)): Mild, acute central-lobular inflammation | Histology: Lung ([3]; 45 mg/kg/day-2001 (Male)): NSL | Histology: Spleen ([3]; 45 mg/kg/day-2001 (Male)): Mild EMH; also recorded: Mild, increased megkaryocytes; also recorded: Slight intra-macrophage brown pigment | Histology: Stomach ([3]; 45 mg/kg/day-2001 (Male)): NSL | Histology: Test/Epididymis ([3]; 45 mg/kg/day-2001 (Male)): NSL | Histology: Bone Marrow ([3]; 45 mg/kg/day-2501(female)): NSL | Histology: Kidney ([3]; 45 mg/kg/day-2501(female)): Slight, bilateral, acute-multi-focal; also recorded: Slight tubular vacuolization | Histology: Liver ([3]; 45 mg/kg/day-2501(female)): Mild bile duct hyperplasia; also recorded: Multifocal portal tract thrombosis; also recorded: Slight, Kupffer cell brown pigment | Histology: Lung ([3]; 45 mg/kg/day-2501(female)): NSL | Histology: Spleen ([3]; 45 mg/kg/day-2501(female)): Mild EMH; also recorded: Mild, increased megkaryocytes; also recorded: Slight intra-macrophage brown | Histology: Stomach ([3]; 45 mg/kg/day-2501(female)): NSL

Cc1ccccc1Oc1ccc2nc(-n3cc(C(=O)O)cn3)[nH]c(=O)c2c1 [Example 37, 1-(4-Oxo-6-o-tolyloxy-3,4-dihydro-quinazolin-2-yl)-1H-pyrazole-4-carboxylic acid]
IC50 [1]: 25.1 nM | Emax at 100 µM [2]: 78%

O=C(O)c1cnn(-c2nc3ccc(-c4ccccc4)cc3c(=O)[nH]2)c1 [Example 106, 1-(4-oxo-6-phenyl-3,4-dihydro-quinazolin-2-yl)-1H-pyrazole-4-carboxylic acid]
IC50 [1]: 31.6 nM | Emax at 100 µM [2]: 129%

O=C(O)c1cnn(-c2nc3cc(S(=O)(=O)c4ccccc4Cl)ccc3c(=O)[nH]2)c1 [Example 83, 1-[7-(2-Chloro-benzenesulfonyl)-4-oxo-3,4-dihydro-quinazolin-2-yl]-1H-pyrazole-4-carboxylic acid]
IC50 [1]: 100 nM | Emax at 100 µM [2]: 11%

COc1ccc(S(=O)(=O)c2cc3c(=O)[nH]c(-n4cc(C(=O)O)cn4)nc3cc2Cl)cc1OC [Example 71, 1-[7-Chloro-6-(3,4-dimethoxy-benzenesulfonyl)-4-oxo-3,4-dihydro-quinazolin-2-yl]-1H-pyrazole-4-carboxylic acid]
IC50 [1]: 15.8 nM | Emax at 100 µM [2]: 16%

O=C(O)c1cnn(-c2nc3c(F)cc(Br)cc3c(=O)[nH]2)c1 [Example 130, 1-(6-Bromo-8-fluoro-4-oxo-3,4-dihydro-quinazolin-2-yl)-1H-pyrazole-4-carboxylic acid]
IC50 [1]: 79.4 nM | Emax at 100 µM [2]: 12%

CC(C)(C)c1cc(Oc2ccc3nc(-n4cc(C(=O)O)cn4)[nH]c(=O)c3c2)cc(C(C)(C)C)c1 [Example 35, 1-[6-(3,5-Di-tert-butyl-phenoxy)-4-oxo-3,4-dihydro-quinazolin-2-yl]-1H-pyrazole-4-carboxylic acid]
IC50 [1]: 31.6 nM | Emax at 100 µM [2]: 8%

O=C(O)c1cnn(-c2nc3ccc(C4CCCCC4)cc3c(=O)[nH]2)c1 [Example 21, 1-(6-Cyclohexyl-4-oxo-3,4-dihydro-quinazolin-2-yl)-1H-pyrazole-4-carboxylic acid]
IC50 [1]: 25.1 nM | Emax at 100 µM [2]: 84%

Cc1ccc2c(=O)[nH]c(-n3cc(C(=O)O)cn3)nc2c1 [Example 10, 1-(7-Methyl-4-oxo-3,4-dihydro-quinazolin-2-yl)-1H-pyrazole-4-carboxylic acid]
IC50 [1]: 50.1 nM | Emax at 100 µM [2]: 32%

O=C(O)c1cnn(-c2nc3ccc(NCc4ccccc4)cc3c(=O)[nH]2)c1 [Example 171, 1-(6-Benzylamino-4-oxo-3,4-dihydro-quinazolin-2-yl)-1H-pyrazole-4-carboxylic acid]
IC50 [1]: 25.1 nM | Emax at 100 µM [2]: 34%

O=C(O)c1cnn(-c2nc3cc(Cl)c(Oc4cccc5ccccc45)cc3c(=O)[nH]2)c1 [Example 53, 1-[7-Chloro-6-(naphthalen-1-yloxy)-4-oxo-3,4-dihydro-quinazolin-2-yl]-1H-pyrazole-4-carboxylic acid]
IC50 [1]: 31.6 nM | Emax at 100 µM [2]: 45%

Cc1cccc(C)c1Oc1cc2c(=O)[nH]c(-n3cc(C(=O)O)cn3)nc2cc1Cl [Example 49, 1-[7-Chloro-6-(2,6-dimethyl-phenoxy)-4-oxo-3,4-dihydro-quinazolin-2-yl]-1H-pyrazole-4-carboxylic acid]
IC50 [1]: 31.6 nM | Emax at 100 µM [2]: 55%

O=C(O)c1cnn(-c2nc3ccc(COc4ccccc4)cc3c(=O)[nH]2)c1 [Example 74, 1-(4-Oxo-6-phenoxymethyl-3,4-dihydro-quinazolin-2-yl)-1H-pyrazole-4-carboxylic acid]
IC50 [1]: 31.6 nM | Emax at 100 µM [2]: 35%

O=C(O)c1cnn(-c2nc3cc(OC(F)(F)F)ccc3c(=O)[nH]2)c1 [Example 148, 1-(4-Oxo-7-trifluoromethoxy-3,4-dihydro-quinazolin-2-yl)-1H-pyrazole-4-carboxylic acid]
IC50 [1]: 126 nM | Emax at 100 µM [2]: 10%

Cc1cccc(-c2ccc3c(=O)[nH]c(-n4cc(C(=O)O)cn4)nc3c2)c1 [Example 189, 1-(4-Oxo-7-m-tolyl-3,4-dihydro-quinazolin-2-yl)-1H-pyrazole-4-carboxylic acid]
IC50 [1]: 50.1 nM | Emax at 100 µM [2]: 25%

O=C(O)c1cnn(-c2nc3ccc(-c4cccc(F)c4)cc3c(=O)[nH]2)c1 [Example 196, 1-[6-(3-Fluoro-phenyl)-4-oxo-3,4-dihydro-quinazolin-2-yl]-1H-pyrazole-4-carboxylic acid]
IC50 [1]: 39.8 nM | Emax at 100 µM [2]: 92%

CCCc1ccc2nc(-n3cc(C(=O)O)cn3)[nH]c(=O)c2c1 [Example 129, 1-(4-Oxo-6-propyl-3,4-dihydro-quinazolin-2-yl)-1H-pyrazole-4-carboxylic acid]
IC50 [1]: 31.6 nM | Emax at 100 µM [2]: 94%

O=C(O)c1cnn(-c2nc3ccc(N4CCCC4)cc3c(=O)[nH]2)c1 [Example 123, 1-(4-Oxo-6-pyrrolidin-1-yl-3,4-dihydro-quinazolin-2-yl)-1H-pyrazole-4-carboxylic acid]
IC50 [1]: 39.8 nM | Emax at 100 µM [2]: 17%
